Data published in ChEMBL document CHEMBL1148473, “Sabadinine: a potential non-peptide anti-severe acute-respiratory-syndrome agent identified using structure-aided design” (J Med Chem, 2004).
Activity calls are given as the source filed them. The rule behind the calls is not given here.

Legend:
[1] = test system: Murine hepatitis virus strain A59; assay: Evaluated for cellular toxicity against mouse hepatitis virus strain A59 up to 100 uM, Not toxic; type: functional, organism-based
Coronaviridae = assay: Evaluated for effect on murine coronavirus replication; No effect; type: functional, organism-based
Homo sapiens = species: Homo sapiens; assay: Compound was tested for inhibition of a proteinase 3CL pro of human coronavirus; Inhibited

In the case of `CC1CCC2N(C1)CC1[C@](O)(C(O)C[C@@]3(O)C4CCC5C6(O)OC4(C[C@@]13O)C5(C)CCC6O)[C@]2(C)O` (stereo partly drawn), the Activity [1] is reported as “Not toxic”, the Activity (Coronaviridae) is reported as “inactive” and the Activity (Homo sapiens) is reported as “Inhibited”.
